Holding throughout (type): biochemical
Assay [1] concerns the target T1, human JAK1 (a.a. 837-1142) (Homo sapiens, UniProt P23458).
T1 construct: human JAK1 (a.a. 837-1142); His tag (N); made in house; host or cells: insect cells (baculovirus)
Nature of the assay: In vitro JAK kinase assay (HTRF, phosphorylation of a biotinylated peptide), JAK1. The settings on record: read-out: JAK1 IC50. A digest of the protocol: (§1)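 Kinase activity was measured as phosphorylation of a biotinylated peptide, with ATP at 90 μM for JAK1, 30 μM for JAK2 and 3 μM for JAK3. Reactions ran 1 hr at room temperature, were stopped with EDTA plus SA-APC and Eu-Py20, and were read by HTRF after 40 minutes of antibody binding.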
Background: Time-resolved FRET reads energy transfer from a long-lived donor to a nearby acceptor.

For assay [2], the target named is T2, human JAK2 (a.a. 828-1132) (Homo sapiens, UniProt O60674).
T2 construct: JAK2 (a.a. 828-1132); His tag (N); made in house; host or cells: insect cells (baculovirus)
Nature of the assay: In vitro JAK kinase assay (HTRF, phosphorylation of a biotinylated peptide), JAK2. The method in brief: as §1

In assay [3] the target is T3, human JAK3 (a.a. 781-1124) (Homo sapiens, UniProt P52333).
T3 construct: JAK3 (a.a. 781-1124); His tag (N); made in house; host or cells: insect cells (baculovirus)
Nature of the assay: In vitro JAK kinase assay (HTRF, phosphorylation of a biotinylated peptide), JAK3. The method in brief:
as §1

Assay [4] concerns the target TYK2 (Homo sapiens, UniProt P29597). Nature of the assay: TYK2 kinase inhibition (Table A1).
The target of assay [5] is T4, Recombinant Human Anaplastic Lymphoma Kinase (Homo sapiens, UniProt Q9UM73).
T4 construct: purchased Invitrogen, Carlsbad, Calif
Put plainly: ALK HTRF kinase assay. A digest of the protocol: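 IC50 was obtained from a logistic fit of signal versus log inhibitor concentration, using pre- and post-transition baselines and a Hill slope. The signal reported tyrosine phosphorylation of a biotinylated peptide by recombinant human kinase, detected as Eu-to-APC energy transfer.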

Where [6] appears, read: Table B1, cells without percent sign.
The mark [7] stands for this setting: compound at a concentration of 500 nM or 1 mM (not specified), cells shown as percentage.
[8] abbreviates: method AA1 (90 μM ATP) or AA2 (1000 μM ATP), not stated per value.
Where [9] appears, read: method AA1 (30 μM ATP) or AA2 (1000 μM ATP), not stated per value.
[10] abbreviates: method AA1 (3 μM ATP) or AA2 (1000 μM ATP), not stated per value.
Setting [11] is: compound at 500 nM or 1 mM, 90 μM ATP.

pIC50: −log10 of the molar value. Counter-ions that a name gives are not always drawn. Like-named read-outs stand apart in the source and are kept apart here.

T2 sequence (O60674 828-1132): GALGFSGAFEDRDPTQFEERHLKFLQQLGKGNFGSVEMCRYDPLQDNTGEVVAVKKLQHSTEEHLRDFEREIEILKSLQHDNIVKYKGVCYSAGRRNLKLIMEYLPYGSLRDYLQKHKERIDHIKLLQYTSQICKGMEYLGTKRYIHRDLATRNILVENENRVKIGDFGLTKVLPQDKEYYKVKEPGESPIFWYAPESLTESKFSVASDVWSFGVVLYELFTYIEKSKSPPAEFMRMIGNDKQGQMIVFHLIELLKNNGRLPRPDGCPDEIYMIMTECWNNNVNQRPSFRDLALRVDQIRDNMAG
T4 sequence (Q9UM73 19-1620): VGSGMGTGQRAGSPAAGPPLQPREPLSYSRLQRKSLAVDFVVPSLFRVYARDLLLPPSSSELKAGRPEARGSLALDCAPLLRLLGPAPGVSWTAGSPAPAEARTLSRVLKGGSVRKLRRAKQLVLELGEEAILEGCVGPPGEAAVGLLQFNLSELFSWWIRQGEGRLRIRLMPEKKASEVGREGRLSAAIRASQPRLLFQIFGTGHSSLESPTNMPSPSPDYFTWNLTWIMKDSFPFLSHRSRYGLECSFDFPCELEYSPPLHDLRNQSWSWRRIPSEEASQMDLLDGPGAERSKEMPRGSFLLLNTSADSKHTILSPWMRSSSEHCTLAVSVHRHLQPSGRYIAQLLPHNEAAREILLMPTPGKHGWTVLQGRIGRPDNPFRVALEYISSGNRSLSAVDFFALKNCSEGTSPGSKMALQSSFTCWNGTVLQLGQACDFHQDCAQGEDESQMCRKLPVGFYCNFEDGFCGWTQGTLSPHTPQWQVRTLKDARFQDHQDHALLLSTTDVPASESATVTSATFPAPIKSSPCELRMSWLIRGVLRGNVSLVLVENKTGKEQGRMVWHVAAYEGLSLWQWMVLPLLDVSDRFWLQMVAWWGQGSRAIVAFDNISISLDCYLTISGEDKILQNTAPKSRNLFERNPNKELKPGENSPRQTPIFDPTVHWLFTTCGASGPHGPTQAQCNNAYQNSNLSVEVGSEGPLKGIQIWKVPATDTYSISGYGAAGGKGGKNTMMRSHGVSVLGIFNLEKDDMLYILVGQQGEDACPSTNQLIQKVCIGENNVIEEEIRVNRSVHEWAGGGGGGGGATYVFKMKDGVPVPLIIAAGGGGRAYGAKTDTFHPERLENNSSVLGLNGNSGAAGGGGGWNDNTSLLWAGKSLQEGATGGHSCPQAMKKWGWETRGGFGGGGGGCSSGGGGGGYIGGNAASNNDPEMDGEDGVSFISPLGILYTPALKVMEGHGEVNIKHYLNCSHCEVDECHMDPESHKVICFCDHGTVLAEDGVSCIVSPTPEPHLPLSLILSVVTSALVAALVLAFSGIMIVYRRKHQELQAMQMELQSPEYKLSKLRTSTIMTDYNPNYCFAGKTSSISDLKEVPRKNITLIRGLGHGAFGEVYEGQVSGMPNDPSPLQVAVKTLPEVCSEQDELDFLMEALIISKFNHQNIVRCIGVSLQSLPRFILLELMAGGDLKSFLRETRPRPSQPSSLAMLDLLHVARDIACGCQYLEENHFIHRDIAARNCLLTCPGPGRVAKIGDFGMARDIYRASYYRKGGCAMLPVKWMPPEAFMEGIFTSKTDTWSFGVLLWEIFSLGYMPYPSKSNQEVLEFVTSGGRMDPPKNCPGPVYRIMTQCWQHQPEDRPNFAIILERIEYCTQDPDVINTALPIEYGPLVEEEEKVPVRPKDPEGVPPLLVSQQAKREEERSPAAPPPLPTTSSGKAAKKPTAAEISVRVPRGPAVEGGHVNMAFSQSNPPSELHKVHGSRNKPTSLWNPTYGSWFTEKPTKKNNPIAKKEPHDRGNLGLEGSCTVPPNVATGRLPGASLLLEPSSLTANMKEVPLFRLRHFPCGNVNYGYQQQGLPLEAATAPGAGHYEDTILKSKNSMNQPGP
T1 sequence (P23458 849-1154): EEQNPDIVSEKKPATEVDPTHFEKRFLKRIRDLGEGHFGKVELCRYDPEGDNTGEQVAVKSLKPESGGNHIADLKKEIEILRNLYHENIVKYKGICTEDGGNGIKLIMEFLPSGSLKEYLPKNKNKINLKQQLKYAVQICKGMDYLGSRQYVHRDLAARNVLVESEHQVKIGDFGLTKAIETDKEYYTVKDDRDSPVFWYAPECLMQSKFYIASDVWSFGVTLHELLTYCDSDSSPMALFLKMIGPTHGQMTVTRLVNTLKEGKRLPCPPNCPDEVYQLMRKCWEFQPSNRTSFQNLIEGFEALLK
T3 sequence (P52333 781-1124): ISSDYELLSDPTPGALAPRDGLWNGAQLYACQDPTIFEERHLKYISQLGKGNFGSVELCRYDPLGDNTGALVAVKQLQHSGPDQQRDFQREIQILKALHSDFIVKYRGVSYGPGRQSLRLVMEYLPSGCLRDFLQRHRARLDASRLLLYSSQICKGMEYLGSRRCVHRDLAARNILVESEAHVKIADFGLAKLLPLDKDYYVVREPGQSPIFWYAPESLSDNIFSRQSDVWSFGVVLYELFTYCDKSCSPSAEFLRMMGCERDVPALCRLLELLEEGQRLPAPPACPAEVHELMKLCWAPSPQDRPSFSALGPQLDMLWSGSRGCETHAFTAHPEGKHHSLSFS
Chain of TYK2 (P29597 whole entry): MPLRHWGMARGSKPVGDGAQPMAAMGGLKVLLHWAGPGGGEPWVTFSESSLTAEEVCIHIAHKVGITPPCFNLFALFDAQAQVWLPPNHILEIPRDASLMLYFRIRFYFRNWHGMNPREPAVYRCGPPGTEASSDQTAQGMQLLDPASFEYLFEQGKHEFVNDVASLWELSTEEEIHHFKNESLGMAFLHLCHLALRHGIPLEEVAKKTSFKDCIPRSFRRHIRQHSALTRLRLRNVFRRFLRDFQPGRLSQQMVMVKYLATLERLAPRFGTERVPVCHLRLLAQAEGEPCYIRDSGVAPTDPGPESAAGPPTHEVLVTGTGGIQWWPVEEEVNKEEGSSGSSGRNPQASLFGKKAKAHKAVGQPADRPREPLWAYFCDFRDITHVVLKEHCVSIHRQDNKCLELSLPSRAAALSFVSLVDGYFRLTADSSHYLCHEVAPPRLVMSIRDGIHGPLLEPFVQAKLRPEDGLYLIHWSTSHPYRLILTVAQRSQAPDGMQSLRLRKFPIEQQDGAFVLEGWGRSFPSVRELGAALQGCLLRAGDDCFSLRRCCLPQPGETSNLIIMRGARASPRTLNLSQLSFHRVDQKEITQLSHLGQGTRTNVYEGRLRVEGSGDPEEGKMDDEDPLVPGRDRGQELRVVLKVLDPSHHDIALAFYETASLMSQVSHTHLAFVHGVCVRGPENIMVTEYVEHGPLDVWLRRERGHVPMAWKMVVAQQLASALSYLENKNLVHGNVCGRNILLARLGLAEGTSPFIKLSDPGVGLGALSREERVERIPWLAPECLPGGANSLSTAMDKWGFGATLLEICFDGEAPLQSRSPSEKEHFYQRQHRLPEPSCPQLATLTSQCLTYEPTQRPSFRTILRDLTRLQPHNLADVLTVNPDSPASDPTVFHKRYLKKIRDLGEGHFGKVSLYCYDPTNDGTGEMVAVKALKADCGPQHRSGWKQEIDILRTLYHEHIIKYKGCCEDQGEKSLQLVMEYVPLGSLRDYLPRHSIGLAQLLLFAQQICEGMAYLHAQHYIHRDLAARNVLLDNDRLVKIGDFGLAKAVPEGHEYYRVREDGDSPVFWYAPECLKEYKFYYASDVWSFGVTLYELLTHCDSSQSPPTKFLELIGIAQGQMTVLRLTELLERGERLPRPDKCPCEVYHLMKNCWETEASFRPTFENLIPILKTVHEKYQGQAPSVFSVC

For orientation: pIC50 means the negative decadic logarithm of the IC50, by convention in mol/L. As for `Clc1cnc2nc1Nc1cc(cc(CN3CCN(Cc4cc(Br)cs4)CC3)c1)CCc1cccc(c1)N2` [Example B196, 11-({4-[(4-Bromo-2-thienyl)methyl]piperazin-1-yl}methyl)-6-chloro-2,4,8,22-tetraazatetracyclo[14.3.1.1(3,7).1(9,13)]docosa-1(20),3(22),4,6,9(21),10,12,16,18-nonaene tris(trifluoroacetate)], the pIC50 is 8.46 in assay [1] (Table B1); 9.06 in assay [2] (Table B1); 7.32 in assay [3] (Table B1); 6.95 in assay [4] (Table B1); below 5.00 in assay [5] (setting [6]).

Turning to `O=C(Nc1cccc(F)c1)Nc1cc2cc(c1)Nc1nc(ncc1Cl)Nc1cccc(c1)CC2` [Example B214, N-[6-Chloro-2,4,8,22-tetraazatetracyclo[14.3.1.1(3,7).1(9,13)]docosa-1(20),3(22),4,6,9(21),10,12,16,18-nonaen-11-yl]-N′-(3-fluorophenyl)urea trifluoroacetate], the pIC50 is below 6.00 in assay [1] (Table B1), 6.55 in assay [2] (Table B1), 6.64 in assay [3] (Table B1) and below 6.00 in assay [4] (Table B1). In addition, in assay [5] (setting [7]), the “ALK % of inhibition at a concentration of 500 nM or 1 mM” value (shortened to “ALK % of inhibition”) is 39%.

On to `Clc1cnc2nc1Nc1cccc(c1)CCCc1cccc(c1)N2` [Example A4, 6-Chloro-2,4,8,23-tetraazatetracyclo[15.3.1.1(3,7).1(9,13)]tricosa-1(21),3(23),4,6,9(22),10,12,17,19-nonaene], for which the pIC50 in assay [1] (setting [8]) was 7.06; in assay [2] (setting [9]), 7.27; in assay [3] (setting [10]), 7.35; in assay [4], below 7.00; in assay [5] (90 μM ATP) it was 6.03.

On to `COc1cccc(CN2CCN(Cc3cc4cc(c3)Nc3nc(ncc3Cl)Nc3cccc(c3)CC4)CC2)c1` [Example B198, 6-Chloro-11-{[4-(3-methoxybenzyl)piperazin-1-yl]methyl}-2,4,8,22-tetraazatetracyclo[14.3.1.1(3,7).1(9,13)]docosa-1(20),3(22),4,6,9(21),10,12,16,18-nonaene tris(trifluoroacetate)], for which the pIC50 was 7.41 in assay [1] (Table B1); 8.00 in assay [2] (Table B1); 6.79 in assay [3] (Table B1); 6.54 in assay [4] (Table B1); below 5.00 in assay [5] (setting [6]).

On to `O=C(Nc1ccc2cc1CCc1cncc(c1)Nc1ncc(Cl)c(n1)N2)N[C@H]1CCN(C(=O)c2ccccc2)C1` [Example B227, N-[(3S)-1-benzoylpyrrolidin-3-yl]-N′-[6-chloro-2,4,8,18,22-pentaazatetracyclo[14.3.1.1(3,7).1(9,13)]docosa-1(20),3(22),4,6,9(21),10,12,16,18-nonaen-12-yl]urea bis(trifluoroacetate)], for which the pIC50 is 9.00 in assay [1] (Table B1), 7.54 in assay [2] (Table B1), 6.61 in assay [3] (Table B1) and 7.48 in assay [4] (Table B1). Besides, in assay [5] (setting [7]), the “ALK % of inhibition” value is 25%.

Regarding `Clc1cnc2nc1Nc1cccc(c1)OCCc1cc(cc(-c3cccnc3)c1)N2` [Example D26, 6-Chloro-19-pyridin-3-yl-14-oxa-2,4,8,23-tetraazatetracyclo[15.3.1.1(3,7).1(9,13)]tricosa-1(21),3(23),4,6,9(22),10,12,17,19-nonaene bis(trifluoroacetate)], the pIC50 was 8.92 in assay [1] (Table D1); 9.22 in assay [2] (Table D1); 8.07 in assay [3] (Table D1); 8.57 in assay [4] (Table D1); 6.86 in assay [5] (Table D1, 90 μM ATP).

Regarding `Clc1ccc(CN2CCN(Cc3cc4cc(c3)Nc3nc(ncc3Cl)Nc3cccc(c3)CC4)CC2)cc1` [Example B199, 6-Chloro-11-{[4-(4-chlorobenzyl)piperazin-1-yl]methyl}-2,4,8,22-tetraazatetracyclo[14.3.1.1(3,7).1(9,13)]docosa-1(20),3(22),4,6,9(21),10,12,16,18-nonaene tris(trifluoroacetate)], the pIC50 is 8.31 in assay [1] (Table B1); 8.57 in assay [2] (Table B1); 7.19 in assay [3] (Table B1); 6.81 in assay [4] (Table B1); below 6.00 in assay [5] (setting [6]).

As to `NCC(=O)Nc1ccc2cc1CCc1cccc(c1)Nc1ncc(Cl)c(n1)N2` [Example A107, 2-Amino-N-[6-chloro-2,4,8,22-tetraazatetracyclo[14.3.1.1(3,7).1(9,13)]docosa-1(20),3(22),4,6,9(21),10,12,16,18-nonaen-12-yl]acetamide bis(trifluoroacetate)], the pIC50 in assay [1] (setting [8]) was 8.40; in assay [2] (setting [9]) it was 8.00; in assay [3] (setting [10]), 8.09; in assay [4] it was 8.38. Further, in assay [5] (setting [11]), the “ALK % of inhibition” value was 39%.

Regarding `CC(C)(C)OC(=O)N1CCC(C(=O)Nc2ccc3cc2CCc2cccc(c2)Nc2ncc(Cl)c(n2)N3)CC1` [Example A27, tert-Butyl 4-({[6-chloro-2,4,8,22-tetraazatetracyclo[14.3.1.1(3,7).1(9,13)]docosa-1(20),3(22),4,6,9(21),10,12,16,18-nonaen-12-yl]amino}carbonyl)piperidine-1-carboxylate trifluoroacetate], the negative-log IC50 (pIC50) is 7.21 in assay [1] (setting [8]), 7.25 in assay [2] (setting [9]), 6.91 in assay [3] (setting [10]) and 7.37 in assay [4]. The “ALK % of inhibition” value in assay [5] (setting [11]) is reported as 21%.

Consider `Cc1cccc(NC(=O)Nc2ccc3cc2CCc2cccc(c2)Nc2ncc(Cl)c(n2)N3)c1` [Example B90, N-[6-Chloro-2,4,8,22-tetraazatetracyclo[14.3.1.1(3,7).1(9,13)]docosa-1(20), 3(22),4,6,9(21),10,12,16,18-nonaen-12-yl]-N′-(3-methylphenyl)urea trifluoroacetate], for which the pIC50 in assay [1] (Table B1) was 8.28; in assay [2] (Table B1), 8.11; in assay [3] (Table B1) it was 7.14; in assay [4] (Table B1) it was 7.70; in assay [5] (setting [6]), below 6.00.

Turning to `O=C(Nc1ccc2cc1CCc1cncc(c1)Nc1ncc(Cl)c(n1)N2)N1CCNCC1` [Example B285, N-[6-Chloro-2,4,8,18,22-pentaazatetracyclo[14.3.1.1(3,7).1(9,13)]docosa-1(20),3(22),4,6,9(21),10,12,16,18-nonaen-12-yl]piperazine-1-carboxamidetrihydrochloride], the negative logarithm of the IC50 (pIC50) is 7.00 in assay [1] (Table B1), below 6.70 in assay [2] (Table B1), below 6.70 in assay [3] (Table B1) and below 6.70 in assay [4] (Table B1). In addition, the “ALK % of inhibition” value in assay [5] (setting [7]) is 38%.

`N#Cc1ccc(NC(=O)N2CCC(CC(=O)Nc3ccc4cc3CCc3cncc(c3)Nc3ncc(Cl)c(n3)N4)CC2)cc1` [Example A143, 4-(2-{[6-Chloro-2,4,8,18,22-pentaazatetracyclo[14.3.1.1(3,7).1(9,13)]docosa-1(20),3(22),4,6,9(21),10,12,16,18-nonaen-12-yl]amino}-2-oxoethyl)-N-(4-cyanophenyl)piperidine-1-carboxamide bis(trifluoroacetate)]: the pIC50 in assay [1] (setting [8]) was 8.66; in assay [2] (setting [9]) it was 8.74; in assay [3] (setting [10]) it was below 7.00; in assay [4], 8.92. In addition, in assay [5] (setting [11]), the “ALK % of inhibition” value was 63%.

For the molecule `O=C(CC1CCN(C(=O)Nc2ccccc2)CC1)Nc1ccc2cc1CCc1cncc(c1)Nc1ncc(Cl)c(n1)N2` [Example A77, 4-(2-{[6-Chloro-2,4,8,18,22-pentaazatetracyclo[14.3.1.1(3,7).1(9,13)]docosa-1(20),3(22),4,6,9(21),10,12,16,18-nonaen-12-yl]amino}-2-oxoethyl)-N-phenylpiperidine-1-carboxamide bis(trifluoroacetate)], the pIC50 is 9.22 in assay [1] (setting [8]), 9.15 in assay [2] (setting [9]), 7.46 in assay [3] (setting [10]) and 8.40 in assay [4]. Also, the “ALK % of inhibition” value in assay [5] (setting [11]) came to 35%.

With `O=C(Nc1ccccc1)c1cc2cc(c1)OCCSc1cccc(c1)Nc1nc(ncc1Cl)N2` [Example D50, 6-Chloro-N-phenyl-17-oxa-14-thia-2,4,8,24-tetraazatetracyclo[16.3.1.1(3,7).1(9,13)]tetracosa-1(22),3(24),4,6,9(23),10,12,18,20-nonaene-20-carboxamide trifluoroacetate], the pIC50 was 8.14 in assay [1] (Table D1); 8.39 in assay [2] (Table D1); 7.26 in assay [3] (Table D1); 7.80 in assay [4] (Table D1); 5.82 in assay [5] (Table D1, 90 μM ATP).

Turning to `Cc1noc(C)c1S(=O)(=O)Nc1ccc2cc1CCc1cccc(c1)Nc1ncc(Cl)c(n1)N2` [Example B152, N-[6-Chloro-2,4,8,22-tetraazatetracyclo[14.3.1.1(3,7).1(9,13)]docosa-1(20),3(22),4,6,9(21),10,12,16,18-nonaen-12-yl]-3,5-dimethylisoxazole-4-sulfonamide trifluoroacetate], the pIC50 was 9.46 in assay [1] (Table B1); 9.85 in assay [2] (Table B1); 7.96 in assay [3] (Table B1); 9.30 in assay [4] (Table B1); 6.37 in assay [5] (setting [6]).

Values taken from US8871753B2, “Macrocyclic compounds and their use as kinase inhibitors” (Incyte Corporation, priority 2008, dated 2014).
